In the assay the target is T1, recombinant human secreted phospholipase A2 (Homo sapiens, UniProt P14555).
T1 sequence (P14555 21-144): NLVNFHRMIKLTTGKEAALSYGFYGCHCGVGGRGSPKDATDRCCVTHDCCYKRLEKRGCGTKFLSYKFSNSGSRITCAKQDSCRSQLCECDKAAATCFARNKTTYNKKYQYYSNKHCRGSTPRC
Kind of assay: PLA2 Chromogenic Assay (human secreted phospholipase A2 inhibition). Type of assay: biochemical. The note with it: racemic diheptanoyl thio-PC 1 mM, pH 7.5, 40° C., 30 minutes, 405 nanometers, triplicate, read-out: Compound IC50. From the text:
The following chromogenic assay procedure was used to identify and evaluate inhibitors of recombinant human secreted phospholipase A2. The assay described herein has been adapted for high volume screening using 96 well microtiter plates. A general description of this assay method is found in the article, "Analysis of Human Synovial Fluid Phospholipase A2 on Short Chain Phosphatidylcholine-Mixed Micelles: Development of a Spectrophotometric Assay Suitable for a Microtiterplate Reader", by Laure J. Reynolds, Lori L. Hughes, and Edward A Dennis, Analytical Biochemistry,204, pp. 190-197, 1992 (the disclosure of which is incorporated herein by reference): […]
A measured volume of racemic dipheptanoyl thio PC supplied in chloroform at a concentration of 100 mg/ml is taken to dryness and redissolved in 10 millimolar TRITON X-100™ nonionic detergent aqueous solution. […]
5. Read absorbance of wells at 405 nanometers with an automatic plate reader.
All compounds were tested in triplicate. […] Compounds initially found to be active were reassayed to confirm their activity and, if sufficiently active, IC50 values were determined. […] In all cases, % inhibition measured at 405 nanometers generated by enzyme reactions containing inhibitors relative to the uninhibited control reactions was determined. […] IC50 were determined by plotting log concentration versus inhibition values in the range from 10-90% inhibition.

Each structure is given as a SMILES string.

Broadly, the IC50 is the midpoint of a concentration-inhibition curve. Turning to `CC1=C(CC(N)=O)c2cc(OCCCC(=O)O)ccc2/C1=C\c1ccccc1` [Compound 14a, 4-[3(z)-benzylidene-1-carbamoylmethyl-2-methyl-3H-inden-6-yloxy]-butanoic acid], the concentration for half-maximal inhibition (IC50) stood at 910 nM.
Then `CC1=C(CC(N)=O)c2c(OCC(=O)O)cccc2/C1=C\c1ccccc1` [Compound 14b, [3(z)-benzylidene-1-carbamoylmethyl-2-methyl-3H-inden-7-yloxy]-acetic acid], with 420 nM.

The record behind these values is patent US6214876A, “Indene-1-acetamide sPLA2 inhibitors” (Eli Lilly and Company, priority 1994, dated 2001).
